Measurements taken from US12378220B2, “WNT signaling pathway inhibitors for treatments of disease” (University of Maryland, Baltimore, priority 2016, dated 2025).
“Also recorded” adds a separate entry of the source. Like-named read-outs stand apart in the source and are kept apart here.

Key:
[1] = metabolic stability, substrate depletion in liver S9 fraction; type: in vitro ADME, mouse; conditions: 37 degrees, after one hour
Procedure: (§1) FIGS. 5A and 5B illustrate the metabolic stability of YW1149. S9 fraction from mouse liver tissues (FIG. 5A) and mouse plasma samples (FIG. 5B) were mixed with YW1149 and incubated at 37 degrees, respectively. *P<0.05 as compared to time 0.
(§2) The metabolic stability of these compounds was then estimated using YW1149 as a prototypical compound, with in vitro substrate depletion in mouse liver tissue S9 fraction as previously described (Jones and Houston, 2004).

primary hepatocytes = assay: glucose production in primary hepatocytes; type: cell-based
Text: In light of this evidence, a class of triazole-based inhibitors were synthesized and tested, as described herein.

HepG2 cells [2] = assay: glucose production, G6P expression and AMPK phosphorylation; type: cell-based, human
HEK293 cells = assay: cytotoxicity, Cell Counting Kit-8 colorimetric assay; conditions: Homo sapiens, HEK293, read-out: anti-proliferation IC50
Procedure: The cytotoxicity of series of a compound of the invention was measured using a colorimetric assay, Cell Counting Kit-8 (Sigma) in HEK293 cells.

Wnt/β-catenin pathway = assay: dual-luciferase TCF/LEF reporter assay, LiCl-activated, HEK293 cells; type: cell-based; conditions: Homo sapiens; for activity at 1 µM: HEK293, 24 h, At 1 μM concentration, remaining Wnt signaling activity, read-out: RLU % (Relative Light Units in reporter gene assays); for IC50: HEK293
Procedure: Lithium chloride (LiCl), which has been previously established as an activator of the Wnt/β-catenin pathway through its direct and indirect effects on GSK3β was used for pathway activation. The inhibition of the Wnt/β-catenin pathway by a compound may be determined after its incubation with cells for 24 hours.
The assay provided herein is a dual-luciferase assay to measure Wnt/β-catenin pathway activation using a TCF/LEF responsive reporter construct similar to that described previously (Thorne et al., 2010).

plasma stability = type: in vitro ADME; conditions: mouse plasma, 37 degrees
Procedure: as §1, §2

HepG2 cells [3] = assay: expression of Wnt pathway proteins; type: cell-based, human; conditions: FIG. 3
Procedure: HepG2 cells were treated by YW1149 (vehicle, 0.1, 1 μM).

in vivo = assay: in vivo
Text: Representative data from each group is shown.
Blood samples were collected at multiple time points. […] Ultra-performance liquid chromatography system with a triple quadruple detector (UPLC/TQD) was used for compound quantitation.

[4] = tested on: WiDr, SW620, HT29, HEK_LTV, and T84 cell lines; assay: cell proliferation and growth inhibition assay (CCK-8), cell line panel; type: cell-based, human; conditions: 72 h, FIG. 12
Procedure: Cell Proliferation and Growth Inhibition Assay. HT-29, HCT-116, WiDr, SW620, SW480, T84, A549, MCF-7, HepG2, Hela cells were cultured in respective growth medium. Cells of log phase were used. 3000-5000 cells/well were seeded in 96-well plates with a 100 μL volume. After 24 h, Compounds were dissolved to […] with DMSO, and a 3-fold serial dilution of the compounds from 5×10^−5 M to […] was performed. 2 μL of compound solution was added to 998 μL of growth medium, the mixture was vortexed sufficiently. 100 μL of the mixture was correspondingly added to the 96-well plate. 2 μL DMSO instead of compound solution was used as the 0% inhibitor control. After coincubation for 72 h, the old medium was removed and 100 μL of 10% CCK-8 in culture medium was added. 2 h later the plates were read in the microplate reader (Bio-Rad) at 450 nm. The data was calculated using Graph Pad Prism version 5.0. The IC50 were fitted using a nonlinear regression model with a sigmoidal dose response.

SW620 cells [5] = assay: cell cycle analysis by flow cytometry; type: cell-based, human; conditions: unsynchronized and synchronized, 24 h
Procedure: SW620 cells were treated with YW2013 at various concentrations (0, 1, 10 μM) to determine the effect of YW2013 on the SW620 cell cycle in an unsynchronized assay (FIG. 27A) and an assay where cells were treated with FBS free medium for 24 hours up to synchronization before adding YW2013 (FIG. 27B).
Cell Cycle Analysis. SW620 cells were plated in 6-well plates for 24 h, and the medium was replaced with medium containing 0, 1, 10, μM/L of YW2013. After incubation for 24 h, the cells were harvested by trypsinization and then fixed with 70% 4° C. ethanol. Intracellular DNA was stained with 50 ng/ml propidium iodide in the dark for 30 min at room temperature, and the percentages of different phase of cells were determined by flow cytometry (BD FACScan; BD Biosciences).

[6] = tested on: Madin-Darby Canine Kidney (MDCK) epithelial cell monolayer; assay: permeability across MDCK monolayer on transwell plates; type: in vitro ADME; conditions: data not shown
SW620 cells [7] = assay: colony formation assay; type: cell-based, human
Procedure: (§3) Colony Formation Assay. HT-29 and SW620, SW480 cells were seeded into 6-well dishes with the medium containing 0, 1, 3, 10, 30 μM/L of YW2013 or YW2044, 500 cells/well. After 2 weeks, cells were fixed with 4% paraformaldehyde solution and stained with 0.5% crystal violet for 1 h at room temperature. The images of colonies were captured by microscopy.

SW480 cells [8] = assay: colony formation assay; type: cell-based, human; conditions: 0-30 μM, 2 weeks
Procedure: as §3

SW620 cells [9] = assay: quantitative real-time RT-PCR of Wnt regulated genes; type: cell-based, human
Procedure: (§4) Quantitative Real-time RT-PCR. The total RNA extracted from the cells using TRIzol (Invitrogen) and 2 μg was reverse transcribed in a 20-μl volume system (QuantiTect Reverse Transcription Kit (Qiagen)) for quantitative PCR assays. SYBR green quantitative real-time PCR analyses were carried out using gene-specific primers (working concentration at 250 nM) in StepOnePlus real time PCR system (Applied Biosystems, AB), using the housekeeping gene GAPDH as an internal control. The PCR running procedure was as follows: 4 min denaturing at 95° C., followed by 40 cycles of 30 seconds of denaturing at 95° C. and then annealing and extension at 60° C. for 1 min.

WiDr cells = assay: as above; type: cell-based, human
Procedure: as §4

A549 cells = assay: as above; type: cell-based, human
Procedure: as §4

SW480 cells [10] = assay: Western blot of Wnt signaling proteins; type: cell-based, human; conditions: 48 h
Procedure: Using a Wester Blot, compounds YW2013 and YW2123 were tested in SW480 cells to determine their effect on the expression of Axin-2, β-catenin, and c-myc.
Western Blot: 1×10^6 Cells of SW480 cells were seeded into 6-well plates overnight. A concentration of 3, 10, 30 μM/L YW2013 and 3, 10 μM/L YW2123 was added after 24 h, medium with 1‰ DMSO was used as the control. Cells were exposed to treatment for 48 h. The dishes was washed twice using precold PBS and 100 μL of RIPA then added. After incubating plates on ice for 15 min, cells were scraped carefully and centrifuged for 10 minutes at 14,000 g at 4° C. immediately. The remaining supernatant and lysates were maintained at −70° C. A Bio-Rad protein assay kit (500-0002) was used to quantitate the cell lysates. The concentration was adjusted to 2 mg/ml. A ratio of 1:1 2× loading buffer was added and the samples were denatured by boiling. Protein samples were separated on 4-15% SDS-polyacrylamide gel (SDS-PAGE) and transferred onto the PVDF membranes (Millipore). Immune complexes were formed by incubation of the proteins with primary antibody β-catenin, c-myc, Axin-2, and GAPDH at 4° C. overnight. A second antibody with horseradish peroxidase (HRP, sigma) conjugated was used then. Blots were developed by enhanced chemiluminescence (Thermo).

SW620 cells [11] = assay: Annexin-V/AAD-7 double-staining apoptosis assay; type: cell-based, human; conditions: SW620 cells, 0, 3, 10, 30 μM, 48 h
Procedure: Annexin-V/AAD-7 Double-Staining Assay. SW620 cells were treated with 0, 3, 10, 30 μM/L of YW2013 for 48 h. Then they were harvested and washed with PBS. Apoptotic cells were determined with an FITC Annexin V Apoptosis Detection Kit according to the manufacturer's protocol. Briefly, the cells were washed and subsequently incubated for 15 min at room temperature in the dark in 100 μL of 1× binding buffer containing 2 μL of Annexin V-FITC and 2 μL of AAD-7. After 30 min, apoptosis was analyzed by BD FACSCanto II Flow Cytometer.

HT-29 cells = assay: colony formation assay; type: cell-based, human; conditions: 0-30 μM, 2 weeks
Procedure: as §3

SW620 xenograft = SW620 xenograft tumor growth; type: in vivo, nude mice; conditions: i.p. 10 mg/kg or 50 mg/kg each day, 32 day study, vs vehicle
Procedure: FIG. 37A illustrates tumor growth measured during the study every other day. FIG. 37B illustrates tumor weight that was measured after mouse euthanization. FIG. 37C illustrates the change in mouse body weight during the study.
Six-week old nude mice were injected with 2×10^6 SW620 cells subcutaneously. 10 days after inoculation, mice received an i.p. injection of YW2065 at 10 mg/kg or 50 mg/kg or vehicle each day. The tumor growth (FIG. 37A) was measured every other day. The mice were euthanized at day 32, and tumors were weighed (FIG. 37B). Body weight change was monitored during the study (FIG. 37C).

SW480 cells [12] = assay: mitochondrial function and morphology; type: cell-based, human
Procedure: FIG. 38B illustrates ATP production estimated from the OCR measurement. […] DHE fluorescence intensity was measured by using ImageJ. ˜300 cells were counted in each treatment.
Mitochondrial function and morphology was determined in SW480 cells treated with YW2065.

[13] = HepG2, 0.1 μM pyrvinium, 10 μM YW1149
[14] = Table 3, values in nM, read-out: IC50

Q: For `COc1ccccc1-n1nnc(C(=O)Nc2ccc3ccccc3n2)c1C` [YW1149, 1-(2-Methoxyphenyl)-5-methyl-N-(quinolin-2-yl)-1H-1,2,3-triazole-4-carboxamide], which “metabolism in liver S9 fraction” value [1] is on record?
A: Only minor metabolism was observed after one hour

Q: And the glucose production (primary hepatocytes)?
A: reduces glucose production

Q: And the “expression of glucose 6-phosphatase (G6P)” value (HepG2 cells [2]; [13])?
A: significantly suppress

Q: What about the glucose production (HepG2 cells [2]; [13]) of the same compound?
A: significantly suppress

Q: And the “phosphorylation of AMPK” value (HepG2 cells [2]; HepG2 cells)?
A: increase phosphorylation

Q: What about the IC50 (HEK293 cells) of the same compound?
A: > 100000 nM

Q: And the activity at 1 µM (Wnt/β-catenin pathway)?
A: 5%

Q: What about the IC50 (Wnt/β-catenin pathway; FIG. 1, cellular luciferase gene reporter assay, read-out: IC50, Wnt/β-catenin pathway inhibition) of the same compound?
A: 74 nM

Q: And the IC50 (Wnt/β-catenin pathway; [14])?
A: 88 nM

Q: And the stability in plasma (plasma stability)?
A: stable in plasma for up to eight hours

Q: And the Axin protein expression (HepG2 cells [3])?
A: increased

Q: And the “β-catenin and target gene c-Myc protein” value (HepG2 cells [3])?
A: attenuation

Q: And the bioavailability (in vivo; C57BL/6, mouse)?
A: 75%

Q: And the intravenous half-life (in vivo; mouse, iv, 10 mg/kg)?
A: one

Q: With `Cc1ccccc1-n1ncc(C(=O)Nc2ccc3ccccc3n2)c1C` [YW2013, 5-Methyl-N-(quinolin-2-yl)-1-(o-tolyl)-1H-pyrazole-4-carboxamide] as the compound, how does the growth inhibitory activity [4] read?
A: micromolar growth inhibitory activity

Q: What about the “effect on cell cycle” value (SW620 cells [5]) of the same compound?
A: cell cycle arrest in the G1 and S phases

Q: What about the “apical-to-basolateral and basolateral-to-apical flux” value [6] of the same compound?
A: significant apical-to-basolateral and basolateral-to-apical flux

Q: And the activity at 1 µM (Wnt/β-catenin pathway)?
A: 1.9%

Q: What about the IC50 (Wnt/β-catenin pathway; [14]) of the same compound?
A: 9.6 nM

Q: What about the colony formation (SW620 cells [7]; 0-30 μM, 2 weeks) of the same compound?
A: dose dependent reduction

Q: And the “reduction in colony formation in combination” value (SW620 cells [7]; combined with Gefitinib)?
A: markedly increased when combined with Gefitinib

Q: What about the colony formation (SW480 cells [8]) of the same compound?
A: dose dependent reduction

Q: And the “mRNA expression of Wnt regulated genes (Axin-2 and/or cyclin D1)” value (“mRNA expression of Wnt regulated genes” below) (SW620 cells [9])?
A: reduced mRNA expression

Q: And the “mRNA expression of Wnt regulated genes” value (WiDr cells)?
A: reduced mRNA expression

Q: And the “mRNA expression of Wnt regulated genes” value (A549 cells)?
A: reduced mRNA expression

Q: And the “expression of Axin-2, β-catenin, and c-myc” value (SW480 cells [10])?
A: visibly reduced

Q: And the apoptosis (SW620 cells [11])?
A: induced apoptosis in SW620 cells in a dose dependent manner

Q: For `CCc1ccccc1-n1ncc(C(=O)Nc2ccc3ccccc3n2)c1C` [YW2044, 1-(2-Ethylphenyl)-5-methyl-N-(quinolin-2-yl)-1H-pyrazole-4-carboxamide], which growth inhibitory activity [4] is on record?
A: micromolar growth inhibitory activity

Q: What about the colony formation (HT-29 cells) of the same compound?
A: dose dependent reduction

Q: And the “mRNA expression of Wnt regulated genes” value (SW620 cells [9])?
A: reduce mRNA expression

Q: What about the Axin-2 expression (SW480 cells [10]) of the same compound?
A: noticeable effect

Q: For `Cc1c(C(=O)Nc2ccc3ccccc3n2)cnn1-c1ccccc1Br` [YW2065, 1-(2-Bromophenyl)-5-methyl-N-(quinolin-2-yl)-1H-pyrazole-4-carboxamide], which tumor growth (SW620 xenograft) is on record?
A: markedly inhibited tumor growth; also recorded: inhibited SW620 xenograft growth

Q: What about the “ATP production (estimated from OCR)” value (SW480 cells [12]) of the same compound?
A: inhibited ATP production as a function of dosage

Q: What about the “ROS generation (DHE staining)” value (SW480 cells [12]) of the same compound?
A: increased ROS generation

Q: And the “oxygen consumption rate (OCR)” value (SW480 cells [12])?
A: reduced oxygen consumption rate

Q: What about the mitochondrial morphology (SW480 cells [12]; 10 μM, 4 hours) of the same compound?
A: caused short and punctuated mitochondria
